Measured values published in patent publication US20130324405A1, “NEW ANTIFUNGAL COMPOSITIONS” (DSM IP ASSETS B.V., priority 2011, published 2013).
“And” between values parts separate entries of the source, which are not always exact repeats. Equal entries are not always repeated.

Assays:
[1] = system: Fusarium proliferatum; experiment: Treatment of wounded, inoculated bananas with antifungal compositions (mould growth); format: in vivo
Description: Four organic, unripe (green) bananas were used per treatment. The peel of each banana was wounded thrice using a cork borer according to the method described by de Lapeyre de Bellaire and Dubois (1987). Subsequently, each wound was inoculated with 15 μl of a Fusarium proliferatum suspension containing 1×10^5 of spores/ml. […] In addition, the antifungal compositions comprised 1.00% (w/w) methylhydroxyethylcellulose (MHEC), 0.40% (w/w) xanthan gum, 0.20% (w/w) anti-foaming agent, 0.30% (w/w) citric acid, 0.39% (w/w) lactic acid and 0.11% (w/w) potassium sorbate. The pH of the composition was 4.
The treated, unripe bananas were incubated in a closed box in the dark at 20° C. and a relative air humidity of 95%, which was obtained in the presence of a saturated Na2HPO4 aqueous solution. A ripe (yellow) banana was included in the closed box to elevate the ethylene gas level and thus induce ripening of the treated, unripe bananas.
The expected antifungal activity (E in %) of the combined antifungal composition comprising both active ingredients was calculated according to the Colby equation (Colby, 1967): […]
(§1) wherein X and Y are the observed antifungal activities (in %) of the individual active ingredients X and Y, respectively. If the observed antifungal activity (O in %) of the combination exceeds the expected antifungal activity (E in %) of the combination and the synergy factor O/E is thus >1.0, the combined application of the active ingredients leads to a synergistic antifungal effect.

[2] = system: Botrytis cinerea; experiment: Treatment of wounded, inoculated strawberries by dipping in antifungal compositions (mould growth); format: in vivo; conditions: for Observed antifungal activity O (%): strawberries
Description: Twelve fresh, organic strawberries were used per treatment. Each strawberry was wounded with a 0.5 mm long cut and each wound was inoculated with 10 μl of a Botrytis cinerea suspension containing 1×10^5 of spores/ml. […] The antifungal composition also comprised 1.00% (w/w) methylhydroxyethylcellulose (MHEC), 0.40% (w/w) xanthan gum, 0.20% (w/w) anti-foaming agent, 0.30% (w/w) citric acid, 0.39% (w/w) lactic acid and 0.11% (w/w) potassium sorbate. The pH of the composition was 4.
The treated strawberries were incubated in a closed box in the dark at 20° C. […]. […] The expected antifungal activity (E in %) of the combined antifungal composition comprising both active ingredients was calculated according to the Colby equation (Colby, 1967): […]
as §1
The treated strawberries were assessed on mould growth after 3, 4, 5, 7, 8 and 9 days of incubation according to the two methods described in Example 6.

[3] = system: Botrytis cinerea; experiment: In vitro antifungal activity, 96-well microtiter plates; format: cell-based; conditions: 0.63 ppm natamycin, 25 ppm cyazofamid, 50 ppm fenamidone, or natamycin plus one of these, 7 days at 25° C.
Description: Subsequently, 100 μl of a Botrytis cinerea suspension prepared in PCB medium was used to inoculated each well with 2.5×10^3spores/ml. […] The expected antifungal activity (E in %) of the active ingredient combination was calculated according to the Colby equation (Colby, 1967): […] wherein X and Y are the observed antifungal activities (in %) of the individual active ingredients X and Y, respectively.

[4] = system: Fusarium proliferatum; experiment: as above; format: cell-based; conditions: 5 days at 25° C.
Description: Subsequently, 100 μl of a Botrytis cinerea suspension prepared in PCB medium was used to inoculated each well with 2.5×10^3spores/ml.
After incubation of the microtiter plates for 7 at 25° C., the in vitro antifungal activity (%) of the individual active ingredients was assessed by calculating the reduction in mould growth observed in the presence of the active ingredient in comparison to the mould growth observed in the absence of the active ingredient. The expected antifungal activity (E in %) of the active ingredient combination was calculated according to the Colby equation (Colby, 1967): […]
as §1, with “and the resulting synergy factor” for “and the synergy factor”
Furthermore, Fusarium proliferatum was used for inoculation.

[5] = 250 ppm natamycin, 500 ppm cyazofamid or both, 27 days at 20° C.
[6] = 500 ppm natamycin, 2000 ppm cyazofamid or both, 21 days at 20° C.
[7] = 500 ppm natamycin, 2000 ppm cyazofamid or both, 23 days at 20° C.
[8] = 500 ppm natamycin, 2000 ppm cyazofamid or both, 24 days at 20° C.
[9] = 50 ppm natamycin, 250 ppm fenamidone or both, Day 3 at 20° C.
[10] = 50 ppm natamycin, 250 ppm fenamidone or both, Day 4 at 20° C.
[11] = 50 ppm natamycin, 250 ppm fenamidone or both, Day 5 at 20° C.
[12] = 500 ppm natamycin, 1000 ppm fenamidone or both, Day 3 at 20° C.
[13] = 500 ppm natamycin, 1000 ppm fenamidone or both, Day 5 at 20° C.
[14] = 50 ppm natamycin, 250 ppm fenamidone or both, 3 days at 20° C.
[15] = 50 ppm natamycin, 250 ppm fenamidone or both, 4 days at 20° C.
[16] = 50 ppm natamycin, 250 ppm fenamidone or both, 5 days at 20° C.
[17] = 50 ppm natamycin, 250 ppm fenamidone or both, 7 days at 20° C.
[18] = 50 ppm natamycin, 250 ppm fenamidone or both, 8 days at 20° C.
[19] = 50 ppm natamycin, 250 ppm fenamidone or both, 9 days at 20° C.
[20] = 500 ppm natamycin, 1000 ppm fenamidone or both, 3 days at 20° C.
[21] = 500 ppm natamycin, 1000 ppm fenamidone or both, 4 days at 20° C.
[22] = 500 ppm natamycin, 1000 ppm fenamidone or both, 5 days at 20° C.
[23] = 500 ppm natamycin, 1000 ppm fenamidone or both, 7 days at 20° C.
[24] = 500 ppm natamycin, 1000 ppm fenamidone or both, 8 days at 20° C.
[25] = 500 ppm natamycin, 1000 ppm fenamidone or both, 9 days at 20° C.
[26] = 2.5 ppm natamycin, 50 ppm cyazofamid or both

SMILES | Observed antifungal activity O (%) [1, 5] | Observed antifungal activity O (%) [1, 6] | Observed antifungal activity O (%) [1, 7] | Observed antifungal activity O (%) [1, 8] | Number of moulded strawberries/total number of 12 strawberries [2, 9] | Number of moulded strawberries/total number of 12 strawberries [2, 10] | Number of moulded strawberries/total number of 12 strawberries [2, 11] | Number of moulded strawberries/total number of 12 strawberries [2, 12] | Number of moulded strawberries/total number of 12 strawberries [2, 13] | Observed antifungal activity O (%) [2, 14] | Observed antifungal activity O (%) [2, 15] | Observed antifungal activity O (%) [2, 16] | Observed antifungal activity O (%) [2, 17] | Observed antifungal activity O (%) [2, 18] | Observed antifungal activity O (%) [2, 19] | Observed antifungal activity O (%) [2, 20] | Observed antifungal activity O (%) [2, 21] | Observed antifungal activity O (%) [2, 22] | Observed antifungal activity O (%) [2, 23] | Observed antifungal activity O (%) [3] | also measured
C[C@@H]1C/C=C/C=C/C=C/C=C/[C@H](O[C@@H]2O[C@H](C)[C@@H](O)[C@H](N)[C@@H]2O)C[C@@H]2O[C@](O)(C[C@@H](O)C[C@H]3O[C@@H]3/C=C/C(=O)O1)C[C@H](O)[C@H]2C(=O)O [Natamycin, natamycin] | 4% | 94% | 86% | 84% | 3 and 3/12 | 5 and 5/12 | 10 and 10/12 | 3 and 3/12 | 11 and 11/12 | 64% | 50% | 17% | 17% | 10% | 0% | 75% | 69% | 31% | 13% | 0% | Observed antifungal activity O (%) [2, 24]: 0%; Observed antifungal activity O (%) [2, 25]: 0%; Observed antifungal activity O (%) [4, 26]: 0%
Cc1ccc(-c2c(Cl)nc(C#N)n2S(=O)(=O)N(C)C)cc1 [Cyazofamid, cyazofamid] | 1% | 0% | 0% | 0% |  |  |  |  |  |  |  |  |  |  |  |  |  |  |  | 0% | Observed antifungal activity O (%) ([1]; 50 ppm natamycin, 250 ppm cyazofamid or both, 27 days at 20° C.): 0%; Observed antifungal activity O (%) [4, 26]: 0%; Observed antifungal activity O (%) ([4]; 75 ppm cyazofamid alone or with 2.5 ppm natamycin): 0%
CSC1=N[C@@](C)(c2ccccc2)C(=O)N1Nc1ccccc1 [Fenamidone, fenamidone] |  |  |  |  | 12 and 12/12 | 12 and 12/12 | 12 and 12/12 | 12 and 12/12 | 12 and 12/12 | 0% | 0% | 0% | 0% | 0% | 0% | 9% | 0% | 0% | 0% | 0% | Observed antifungal activity O (%) [2, 24]: 0%; Observed antifungal activity O (%) [2, 25]: 0%
